Experiments:
[1] = tested on: control and sALS lymphoblasts; experiment: Cholesteryl-esters determination; type: cell-based, human; settings: control or sALS lymphoblasts, 5 μM for 24 h
[2] = tested on: MERLIN-HCT116 cells; experiment: MERLIN BRET biosensor assay of mitochondria-ER distance; type: cell-based, human
[3] = tested on: HCT116 cells; experiment: Extracellular NBD-cholesterol uptake in HCT116 cells; type: cell-based, human; settings: HCT116, 5 μM, after 3 h
[4] = tested on: sALS lymphoblasts; experiment: Mitochondrial oxygen consumption rate; type: cell-based, human; settings: 5 μM, 24 h
[5] = tested on: control and sALS lymphoblasts; experiment: Quantification of lipid droplets; type: cell-based, human; settings: control or sALS lymphoblasts, 5 μM for 24 h
[6] = tested on: ALS patient-derived lymphoblastic cell lines; experiment: Extracellular NBD-cholesterol uptake in patient lymphoblastic cell lines; type: cell-based, human; settings: SOD1-ALS lymphoblastoid cell lines, 5 μM, 24 h, NBD-cholesterol 1 h
[7] = tested on: lymphoblasts from sporadic ALS patients; experiment: Electron microscopy of lymphoblast cells; type: cell-based, human; settings: 5 μM for 24 h
[8] = tested on: HCT116 cells; settings: 24 h, safety limit cell viability >80%; for Cell viability (MTT), safety at 1 μM: HCT116, 1 μM; for Cell viability (MTT), safety above 5 μM: HCT116, 5 and 10 μM

Compound	BBB passive permeation (PAMPA)	Cell viability (MTT), safety at 1 μM [8]	Cell viability (MTT), safety above 5 μM [8]	further results
O=C(Nc1ccccc1)c1cc(Cl)ccc1O [Compound 24, 5-Chloro-2-hydroxy-N-phenylbenzamide]	demonstrated the capability to cross the BBB through passive permeation	safe	cellular safety above 5 μM	Cholesteryl esters levels [1]: induce the formation of cholesteryl esters; BRET signal change (individual data) ([2]; higher doses, normalized to DMSO (MOCK)): significant BRET increases at higher doses; Extracellular cholesterol uptake capacity [3]: significantly increased; Basal OCR [4]: successfully restored basal OCR levels; Spare respiratory capacity [4]: notable improvement in spare respiratory capacity; Lipid droplet levels [5]: increase the levels of lipid droplet; Extracellular cholesterol uptake [6]: this change was not observed; Number of MERCs (TEM) ([7]; lymphoblasts from sALS patients): rescued the number of contacts; Lipid droplets in cytosol (TEM) ([7]; sALS lymphoblasts): displayed large lipid droplets in their cytosol; Mitochondrial cristae structure (TEM) ([7]; sALS lymphoblasts): cristae structure was restored
O=C(Nc1cccc([N+](=O)[O-])c1)c1cc(Cl)ccc1O [Compound 29, 5-Chloro-2-hydroxy-N-(3-nitrophenyl)benzamide]	demonstrated the capability to cross the BBB through passive permeation	safe	cellular safety above 5 μM	–
N#Cc1ccc(NC(=O)c2cc(Cl)ccc2O)cc1 [Compound 27, 5-Chloro-N-(4-cyanophenyl)-2-hydroxybenzamide]	demonstrated the capability to cross the BBB through passive permeation	safe	cellular safety above 5 μM	–
O=C(Nc1ccc([N+](=O)[O-])cc1F)c1cc(Cl)ccc1O [Compound 2, 5-Chloro-N-(2-fluoro-4-nitrophenyl)-2-hydroxybenzamide]	–	safe	–	–
O=C(Nc1ccc([N+](=O)[O-])cc1)c1cc(Cl)ccc1O [Compound 25, 5-Chloro-2-hydroxy-N-(4-nitrophenyl)benzamide]	demonstrated the capability to cross the BBB through passive permeation	–	–	–
O=C(Nc1ccc([N+](=O)[O-])cc1Cl)c1cc(Cl)ccc1O [Compound 1, 5-Chloro-N-(2-chloro-4-nitrophenyl)-2-hydroxybenzamide, reference compound]	–	–	–	EC50 ([2]; Homo sapiens, read-out: EC50 (BRET), HTS hit): 8.36 µM

Source: paper PMC11770630 (Journal of Medicinal Chemistry, 2025)
